The record followed here is patent US12139499B2, “Heteroaryl compounds for treating Huntington's disease” (PTC THERAPEUTICS, INC., priority 2018, dated 2024).

This experiment has as its system Endogenous Huntingtin Protein. As to the kind of experiment: Endogenous Huntingtin Protein Assay (ELISA-based MSD electrochemiluminescence). The format is cell-based. Particulars: Table 1. The essentials: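 Huntingtin was captured overnight at 4 °C on plates coated with 1 μg/mL MW1 (polyQ-expanded) or MAB2166 antibody and BSA-blocked. Detection used a rabbit monoclonal and then a SULFO-TAG goat anti-rabbit antibody (0.25 μg/mL, 1 h each, room temperature). Signal was read by electrochemiluminescence.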

Usually IC50 stands for the point on the concentration scale where inhibition reaches its midpoint. A low value points to greater potency. On to `COc1cc(-c2cc(F)c3nc(C4=CCNCC4)sc3c2)nn2cc(C)nc12` [Compound 145, 6-[4-fluoro-2-(1,2,3,6-tetrahydropyridin-4-yl)-1,3-benzothiazol-6-yl]-8-methoxy-2-methylimidazo[1,2-b]pyridazine], for which the IC50 was ≤ 100 nM.
To `Cc1cc(-c2ccc3nc(N(C)C4CCNC(C)(C)C4)sc3c2)cc2cn(C)nc12` (stereo not shown) [Compound 146, 6-(2,7-dimethyl-2H-indazol-5-yl)-N-(2,2-dimethylpiperidin-4-yl)-N-methyl-1,3-benzothiazol-2-amine] belongs 100 to 500 nM; to `Cc1cn2cc(-c3cc4sc(N(C)C5CC(C)(C)NC(C)(C)C5)nc4cn3)cc(F)c2n1` [Compound 147, 6-(8-fluoro-2-methylimidazo[1,2-a]pyridin-6-yl)-N-methyl-N-(2,2,6,6-tetramethylpiperidin-4-yl)[1,3]thiazolo[4,5-c]pyridin-2-amine], ≤ 100 nM.
Consider `CN(c1nc2ccc(-c3cc(C#N)c4nn(C)cc4c3)nc2s1)C1CC(C)(C)NC(C)(C)C1` [Compound 148, 2-methyl-5-{2-[methyl(2,2,6,6-tetramethylpiperidin-4-yl)amino][1,3]thiazolo[5,4-b]pyridin-5-yl}-2H-indazole-7-carbonitrile], for which the IC50 was ≤ 100 nM.
For the molecule `CN(c1nc2ccc(-c3ccc(-c4cn[nH]c4)cc3O)nc2s1)C1CC(C)(C)NC(C)(C)C1` [Compound 149, 2-{2-[methyl(2,2,6,6-tetramethylpiperidin-4-yl)amino][1,3]thiazolo[5,4-b]pyridin-5-yl}-5-(1H-pyrazol-4-yl)phenol], the IC50 lay in the range of 100 to 500 nM.
Turning to `CN(c1nc2ncc(-c3cc(F)c4nn(C)cc4c3)nc2s1)C1CC(C)(C)NC(C)(C)C1` [Compound 150, 6-(7-fluoro-2-methyl-2H-indazol-5-yl)-N-methyl-N-(2,2,6,6-tetramethylpiperidin-4-yl)[1,3]thiazolo[4,5-b]pyrazin-2-amine], the IC50 is ≤ 100 nM.
The same measure for `COc1cc(-c2cc(F)c3nc(C4CCNCC4)sc3c2)nn2cc(C)nc12` [Compound 151, 6-[4-fluoro-2-(piperidin-4-yl)-1,3-benzothiazol-6-yl]-8-methoxy-2-methylimidazo[1,2-b]pyridazine]: ≤ 100 nM.
`Cc1cn2cc(-c3cc(F)c4nc(C5CCNCC5)sc4c3)cc(F)c2n1` [Compound 152, 4-fluoro-6-(8-fluoro-2-methylimidazo[1,2-a]pyridin-6-yl)-2-(piperidin-4-yl)-1,3-benzothiazole]: the IC50 was ≤ 100 nM.
Take `Cn1cc2cc(-c3cc(Cl)c4nc(C5=CCNCC5)sc4c3)cc(F)c2n1` [Compound 153, 4-chloro-6-(7-fluoro-2-methyl-2H-indazol-5-yl)-2-(1,2,3,6-tetrahydropyridin-4-yl)-1,3-benzothiazole]: the IC50 lay within 1000 to 3000 nM.
For `Cn1cc2cc(-c3cc(Cl)c4nc(C5=CCNCC5)sc4c3)cc(C#N)c2n1` [Compound 154, 5-[4-chloro-2-(1,2,3,6-tetrahydropyridin-4-yl)-1,3-benzothiazol-6-yl]-2-methyl-2H-indazole-7-carbonitrile], the IC50 lay in the range of 1000 to 3000 nM.
Molecule `CN(c1nc2ccc(-c3ccc4nn(C)cc4c3)cc2s1)C1CCNC(C)(C)C1` (stereo not shown) [Compound 155, N-(2,2-dimethylpiperidin-4-yl)-N-methyl-6-(2-methyl-2H-indazol-5-yl)-1,3-benzothiazol-2-amine] displayed an IC50 of 100 to 500 nM.
The molecule `Cc1cn2cc(-c3ccc4nc(C5CCNCC5)sc4c3)cnc2n1` [Compound 156, 2-methyl-6-[2-(piperidin-4-yl)-1,3-benzothiazol-6-yl]imidazo[1,2-a]pyrimidine] returned an IC50 of 1000 to 3000 nM.
Take `Cc1cn2cc(-c3cc4sc(N(C)C5CC(C)(C)NC(C)(C)C5)nc4nn3)cc(F)c2n1` [Compound 157, 3-(8-fluoro-2-methylimidazo[1,2-a]pyridin-6-yl)-N-methyl-N-(2,2,6,6-tetramethylpiperidin-4-yl)[1,3]thiazolo[4,5-c]pyridazin-6-amine]: the IC50 was ≤ 100 nM.
